# Test results published in patent US20100041089A1, “IMPROVED METHOD FOR DETECTING CHEMICAL […]” (priority 2006, published 2010).
# Test system: yeast genes (expressed mRNA)
# Experiment: DNA chip measurement of expressed mRNA of yeast genes after culture with a toxic chemical substance
# Type: cell-based, Saccharomyces cerevisiae S288C
# Method in brief: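 Fluorescence ratio, treated over untreated, read by chip scanner; ratio of two or more counted significant. Cells: S288C yeast, YPD, 25° C, chemical added at log phase for 2 h at growth-inhibiting, sublethal level. Cy3/Cy5-labeled cDNA from oligo-dT-purified mRNA.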
smiles,measurement,setting,value
"C=CC=O [(14), Acrolein]",The level of expressed mRNA in the presence of chemical substance/The level of expressed mRNA in the absence of chemical substance,"yeast gene YGL053W, cultured two hours with substance",1.1
same,The level of expressed mRNA in the presence of chemical substance/The level of expressed mRNA in the absence of chemical substance,"yeast gene YGL091C, DNA repair protein genes, cultured two hours with substance",3.1
same,The level of expressed mRNA in the presence of chemical substance/The level of expressed mRNA in the absence of chemical substance,"yeast gene YGL121C, cultured two hours with substance",5.8
same,The level of expressed mRNA in the presence of chemical substance/The level of expressed mRNA in the absence of chemical substance,"yeast gene YGL136C, cultured two hours with substance",2.3
same,The level of expressed mRNA in the presence of chemical substance/The level of expressed mRNA in the absence of chemical substance,"yeast gene YGL199C, cultured two hours with substance",0.8
same,The level of expressed mRNA in the presence of chemical substance/The level of expressed mRNA in the absence of chemical substance,"yeast gene YGR043C, cultured for two hours with substance",4.1
same,The level of expressed mRNA in the presence of chemical substance/The level of expressed mRNA in the absence of chemical substance,"yeast gene YGR064W, cultured two hours with the chemical substance",2.1
same,The level of expressed mRNA in the presence of chemical substance/The level of expressed mRNA in the absence of chemical substance,"yeast gene YGR101W, cultured two hours with substance",0.9
same,The level of expressed mRNA in the presence of chemical substance/The level of expressed mRNA in the absence of chemical substance,"yeast gene YGR110W, cultured two hours with substance",2.8
same,The level of expressed mRNA in the presence of chemical substance/The level of expressed mRNA in the absence of chemical substance,"yeast gene YGR130C, cultured two hours with substance",0.9
same,The level of expressed mRNA in the presence of chemical substance/The level of expressed mRNA in the absence of chemical substance,"yeast gene YGR146C, cultured two hours with substance",1.3
same,The level of expressed mRNA in the presence of chemical substance/The level of expressed mRNA in the absence of chemical substance,"yeast gene YGR154C, cultured two hours with substance",2.2
same,The level of expressed mRNA in the presence of chemical substance/The level of expressed mRNA in the absence of chemical substance,yeast gene YGR209C (detoxification protein gene),5.0
same,The level of expressed mRNA in the presence of chemical substance/The level of expressed mRNA in the absence of chemical substance,"yeast gene YGR221C, cultured two hours with substance",1.4
same,The level of expressed mRNA in the presence of chemical substance/The level of expressed mRNA in the absence of chemical substance,"yeast gene YHR029C, cultured two hours with substance",3.5
same,The level of expressed mRNA in the presence of chemical substance/The level of expressed mRNA in the absence of chemical substance,"yeast gene YHR138C, cultured two hours with substance",3.4
same,The level of expressed mRNA in the presence of chemical substance/The level of expressed mRNA in the absence of chemical substance,"yeast gene YHR179W, cultured for two hours with substance",5.8
same,The level of expressed mRNA in the presence of chemical substance/The level of expressed mRNA in the absence of chemical substance,"yeast gene YHR199C, cultured two hours with substance",2.0
same,The level of expressed mRNA in the presence of chemical substance/The level of expressed mRNA in the absence of chemical substance,"yeast gene YHR209W, cultured two hours with substance",2.2
same,The level of expressed mRNA in the presence of chemical substance/The level of expressed mRNA in the absence of chemical substance,yeast gene YIL015W,5.9
same,The level of expressed mRNA in the presence of chemical substance/The level of expressed mRNA in the absence of chemical substance,"yeast gene YIL023C, cultured two hours with substance",0.7
same,The level of expressed mRNA in the presence of chemical substance/The level of expressed mRNA in the absence of chemical substance,"yeast gene YIL024C, cultured two hours with substance",1.5
same,The level of expressed mRNA in the presence of chemical substance/The level of expressed mRNA in the absence of chemical substance,"yeast gene YIL041W, cultured two hours with substance",1.3
same,The level of expressed mRNA in the presence of chemical substance/The level of expressed mRNA in the absence of chemical substance,"yeast gene YIL057C, cultured two hours with the chemical substance",1.5
same,The level of expressed mRNA in the presence of chemical substance/The level of expressed mRNA in the absence of chemical substance,"yeast gene YIL087C, cultured two hours with substance",1.3
same,The level of expressed mRNA in the presence of chemical substance/The level of expressed mRNA in the absence of chemical substance,"yeast gene YIL117C, cultured two hours with substance",2.6
same,The level of expressed mRNA in the presence of chemical substance/The level of expressed mRNA in the absence of chemical substance,"yeast gene YJL020C, cultured two hours with substance",1.2
same,The level of expressed mRNA in the presence of chemical substance/The level of expressed mRNA in the absence of chemical substance,"yeast gene YJL036W, cultured two hours with substance",1.5
same,The level of expressed mRNA in the presence of chemical substance/The level of expressed mRNA in the absence of chemical substance,"yeast gene YJL057C, cultured two hours with substance",1.6
same,The level of expressed mRNA in the presence of chemical substance/The level of expressed mRNA in the absence of chemical substance,"yeast gene YJL066C, cultured two hours with substance",1.0
same,The level of expressed mRNA in the presence of chemical substance/The level of expressed mRNA in the absence of chemical substance,"yeast gene YJL082W, cultured two hours with substance",0.5
same,The level of expressed mRNA in the presence of chemical substance/The level of expressed mRNA in the absence of chemical substance,"yeast gene YJL108C, cultured two hours with substance",1.0
same,The level of expressed mRNA in the presence of chemical substance/The level of expressed mRNA in the absence of chemical substance,"yeast gene YJL149W, cultured two hours with substance",1.1
same,The level of expressed mRNA in the presence of chemical substance/The level of expressed mRNA in the absence of chemical substance,"yeast gene YJL151C, cultured two hours with substance",1.3
same,The level of expressed mRNA in the presence of chemical substance/The level of expressed mRNA in the absence of chemical substance,"yeast gene YJL152W, cultured two hours with substance",1.4
same,The level of expressed mRNA in the presence of chemical substance/The level of expressed mRNA in the absence of chemical substance,"yeast gene YJL161W, cultured two hours with substance",2.2
same,The level of expressed mRNA in the presence of chemical substance/The level of expressed mRNA in the absence of chemical substance,"yeast gene YJL171C, cultured two hours with substance",1.0
same,The level of expressed mRNA in the presence of chemical substance/The level of expressed mRNA in the absence of chemical substance,"yeast gene YJL186W, cultured two hours with substance",0.8
same,The level of expressed mRNA in the presence of chemical substance/The level of expressed mRNA in the absence of chemical substance,"yeast gene YJR008W, cultured two hours with substance",1.2
same,The level of expressed mRNA in the presence of chemical substance/The level of expressed mRNA in the absence of chemical substance,"yeast gene YJR048W, cultured for two hours with substance",2.5
same,The level of expressed mRNA in the presence of chemical substance/The level of expressed mRNA in the absence of chemical substance,"yeast gene YJR054W, cultured two hours with substance",1.2
same,The level of expressed mRNA in the presence of chemical substance/The level of expressed mRNA in the absence of chemical substance,"yeast gene YKL065C, cultured two hours with substance",2.1
